System: circulating lymphocytes
Assay: Assessment of in vivo efficacy: circulating lymphocytes after oral administration
Parameters: species or system rat
Conditions: 6 h after oral administration of 10 mg/kg to normotensive male Wistar rats, compared to vehicle-treated group; mean ± SEM
Protocol: The efficacy of the compounds of formula (I) is assessed by measuring the circulating lymphocytes after oral administration of 3 to 30 mg/kg of a compound of formula (I) to normotensive male Wistar rats. The animals are housed in climate-controlled conditions with a 12 h-light/dark cycle, and have free access to normal rat chow and drinking water. Blood is collected before and 3, 6 and 24 h after drug administration. Full blood is subjected to hematology using Advia Hematology system (Bayer Diagnostics, Zurich, Switzerland).
All data are presented as mean±SEM. Statistical analyses are performed by analysis of variance (ANOVA) using Statistica (StatSoft) and the Student-Newman-Keuls procedure for multiple comparisons. The null hypothesis is rejected when p<0.05.
Lymphocyte counts 6 h after oral administration have been measured for 39 of the 258 exemplified compounds and are in the range of −82% to −48% with an average of −65%.

| Structure (SMILES) | Lymphocyte counts |
| --- | --- |
| CCc1cc(-c2nc(-c3cc(C)nc(N(CC)CC)c3)no2)cc(C)c1OC[C@@H](O)CNC(=O)CO [Example 80, N—((S)-3-{4-[3-(2-diethylamino-6-methyl-pyridin-4-yl)-[1,2,4]oxadiazol-5-yl]-2-ethyl-6-methyl-phenoxy}-2-hydroxy-propyl)-2-hydroxy-acetamide] | −68 ± 2% |
| CCc1cc(-c2nnc(-c3cc(C)nc(N(CC)CC)c3)s2)cc(C)c1OC[C@@H](O)CNC(=O)CO [Example 94, N—((S)-3-{4-[5-(2-diethylamino-6-methyl-pyridin-4-yl)-[1,3,4]thiadiazol-2-yl]-2-ethyl-6-methyl-phenoxy}-2-hydroxy-propyl)-2-hydroxy-acetamide] | −75 ± 6% |
| COc1cc(-c2noc(-c3cc(C)nc(N(C)C(C)C)c3)n2)cc(Cl)c1OC[C@@H](O)CO [Example 149, (S)-3-(2-chloro-4-{5-[2-(isopropyl-methyl-amino)-6-methyl-pyridin-4-yl]-[1,2,4]oxadiazol-3-yl}-6-methoxy-phenoxy)-propane-1,2-diol] | −82 ± 2% |
| CCc1cc(-c2noc(-c3cc(C)nc(N4CCCC4)c3)n2)cc(C)c1OC[C@@H](O)CNC(=O)CO [Example 188, N—((S)-3-{2-ethyl-6-methyl-4-[5-(2-methyl-6-pyrrolidin-1-yl-pyridin-4-yl)-[1,2,4]oxadiazol-3-yl]-phenoxy}-2-hydroxy-propyl)-2-hydroxy-acetamide] | −76 ± 1% |
| CCc1cc(-c2noc(-c3cc(C)nc(NC(C)C)c3)n2)cc(C)c1OC[C@@H](O)CO [Example 199, (S)-3-{2-ethyl-4-[5-(2-isopropylamino-6-methyl-pyridin-4-yl)-[1,2,4]oxadiazol-3-yl]-6-methyl-phenoxy}-propane-1,2-diol] | −72 ± 3% |

Reference: patent publication US8592460B2, “Amino-pyridine derivatives as S1P1 /EDG1 receptor agonists” (Actelion Pharmaceuticals Ltd., priority 2007, dated 2013)
